The text below walks through data of US12077503B2, “Substituted cyclic amides and their use as herbicides” (FMC CORPORATION, priority 2015, dated 2024).

Common to all, as to format: in vivo
Test [1] deals with barnyardgrass (Echinochloa crus-galli). The test can be described thus: Test B flooded paddy test. To be noted: Echinochloa crus-galli, Flood, 250 g ai/ha; scale of 0 to 100 where 0 is no effect and 100 is complete control; read-out: Barnyardgrass plant response rating. Summed up:
(§1)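 Response scored visually against untreated controls, 0 = no effect and 100 = complete control, 13–15 d after treatment in the greenhouse. Compounds added to paddy water held 3 cm above soil surface. Treatment given at 2-leaf stage.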

For test [2], the system named is sedge, umbrella (small-flower umbrella sedge, Cyperus difformis). In words: Test B flooded paddy test. The conditions noted are these: Cyperus difformis, Flood, 250 g ai/ha, read-out: Sedge, Umbrella plant response rating. Summed up: as §1
Test [3] has as its system ducksalad (Heteranthera limosa). The test can be described thus: Test B flooded paddy test. To be noted: Heteranthera limosa, Flood, 250 g ai/ha; scale of 0 to 100 where 0 is no effect and 100 is complete control; read-out: Ducksalad plant response rating. Summed up: as §1
The test system of another test is rice (Oryra sativa). The test can be described thus: Test B flooded paddy test. The conditions noted are these: Oryza sativa, Flood, 250 g ai/ha; scale of 0 to 100 where 0 is no effect and 100 is complete control; read-out: Rice plant response rating. Summed up:
as §1

The test system of test [4] is ryegrass, Italian (Italian ryegrass, Lolium multiflorum). The test can be described thus: Test A postemergence. To be noted: Lolium multiflorum, post-emergence, 240 h, 125 g ai/ha, Postemergence; visual injury after approximately 10 d; 0 to 100 scale where 0 is no effect and 100 is complete control; read-out: Plant response rating, Ryegrass, Italian. Summed up: (§2)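 Preemergence soil spray on seeded pots or post-emergence spray on 1–2 leaf plants, in loam–sand blend. Greenhouse ~10 d. Visual rating 0–100 against untreated plants.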

Test [5] deals with ragweed (common ragweed, Ambrosia elatior). In words: Test A postemergence. The conditions noted are these: Ambrosia artemisiifolia, post-emergence, 240 h, 125 g ai/ha, Postemergence; visual injury after approximately 10 d; 0 to 100 scale where 0 is no effect and 100 is complete control; read-out: Plant response rating, Ragweed. Summed up: as §2
Test [6] relates to Kochia (Kochia scoparia). In words: Test A postemergence. To be noted: Bassia scoparia, post-emergence, 240 h, 125 g ai/ha, Postemergence; visual injury after approximately 10 d; 0 to 100 scale where 0 is no effect and 100 is complete control; read-out: Plant response rating, Kochia. Summed up: as §2
The next test concerns corn (Zea mays). In words: Test A postemergence. To be noted: Zea mays, post-emergence, 240 h, 125 g ai/ha, Postemergence; visual injury after approximately 10 d; 0 to 100 scale where 0 is no effect and 100 is complete control. Summed up: as §2
The subject of test [7] is pigweed (Amaranthus retroflexus). In words: Test A postemergence. The conditions noted are these: Amaranthus retroflexus, post-emergence, 240 h, 125 g ai/ha, Postemergence; visual injury after approximately 10 d; 0 to 100 scale where 0 is no effect and 100 is complete control; read-out: Plant response rating, Pigweed. Summed up:
as §2

The test system of test [8] is giant foxtail (Setaria faberii). The test can be described thus: Test A postemergence. To be noted: Setaria faberi, post-emergence, 240 h, 125 g ai/ha, Postemergence; visual injury after approximately 10 d; 0 to 100 scale where 0 is no effect and 100 is complete control; read-out: Plant response rating, Foxtail, Giant. Summed up:
as §2

The test system of test [9] is wheat (Triticum aestivum). In words: Test A postemergence. The conditions noted are these: Triticum aestivum, post-emergence, 240 h, 125 g ai/ha, Postemergence; visual injury after approximately 10 d; 0 to 100 scale where 0 is no effect and 100 is complete control; read-out: Plant response rating, Wheat. Summed up:
as §2

In test [10] the test system is blackgrass (Alopecurus myosuroides). In words: Test A postemergence. The conditions noted are these: Alopecurus myosuroides, post-emergence, 240 h, 125 g ai/ha, Postemergence; visual injury after approximately 10 d; 0 to 100 scale where 0 is no effect and 100 is complete control; read-out: Plant response rating, Blackgrass. Summed up:
as §2

Test [11] relates to ryegrass, Italian (Italian ryegrass, Lolium multiflorum). The test can be described thus: Test A preemergence. To be noted: Lolium multiflorum, pre-emergence, 240 h; for pest or weed control at 125 g/ha: 125 g ai/ha, Preemergence, visual injury rating after approximately 10 d, read-out: Ryegrass, Italian plant response rating (0 to 100 scale, 0 is no effect, 100 is complete control); for pest or weed control at 500 g/ha: 500 g ai/ha, preemergence, visual injury rating about 10 d after treatment, 0 to 100 scale (0 no effect, 100 complete control), read-out: Ryegrass, Italian plant response rating. Summed up:
as §2

Test [12] relates to barnyardgrass (Echinochloa crus-galli). In words: Test A preemergence. To be noted: Echinochloa crus-galli, pre-emergence, 240 h; for pest or weed control at 125 g/ha: 125 g ai/ha, Preemergence, visual injury rating after approximately 10 d, read-out: Barnyardgrass plant response rating (0 to 100 scale, 0 is no effect, 100 is complete control); for pest or weed control at 500 g/ha: 500 g ai/ha, preemergence, visual injury rating about 10 d after treatment, 0 to 100 scale (0 no effect, 100 complete control), read-out: Barnyardgrass plant response rating. Summed up: as §2

Test [13] concerns ragweed (common ragweed, Ambrosia elatior). In words: Test A preemergence. The conditions noted are these: Ambrosia artemisiifolia, pre-emergence, 240 h; for pest or weed control at 500 g/ha: 500 g ai/ha, preemergence, visual injury rating about 10 d after treatment, 0 to 100 scale (0 no effect, 100 complete control), read-out: Ragweed plant response rating. Summed up: as §2
For test [14], the system named is Kochia (Kochia scoparia). The test can be described thus: Test A preemergence. The conditions noted are these: Bassia scoparia, pre-emergence, 240 h; for pest or weed control at 125 g/ha: 125 g ai/ha, Preemergence, visual injury rating after approximately 10 d, read-out: Kochia plant response rating (0 to 100 scale, 0 is no effect, 100 is complete control); for pest or weed control at 500 g/ha: 500 g ai/ha, preemergence, visual injury rating about 10 d after treatment, 0 to 100 scale (0 no effect, 100 complete control), read-out: Kochia plant response rating. Summed up:
as §2

The subject of test [15] is pigweed (Amaranthus retroflexus). The test can be described thus: Test A preemergence. To be noted: Amaranthus retroflexus, pre-emergence, 240 h; for pest or weed control at 125 g/ha: 125 g ai/ha, Preemergence, visual injury rating after approximately 10 d, read-out: Pigweed plant response rating (0 to 100 scale, 0 is no effect, 100 is complete control); for pest or weed control at 500 g/ha: 500 g ai/ha, preemergence, visual injury rating about 10 d after treatment, 0 to 100 scale (0 no effect, 100 complete control), read-out: Pigweed plant response rating.

The subject of test [16] is giant foxtail (Setaria faberii). The test can be described thus: Test A preemergence. To be noted: Setaria faberi, pre-emergence, 240 h; for pest or weed control at 125 g/ha: 125 g ai/ha, Preemergence, visual injury rating after approximately 10 d, read-out: Foxtail, Giant plant response rating (0 to 100 scale, 0 is no effect, 100 is complete control); for pest or weed control at 500 g/ha: 500 g ai/ha, preemergence, visual injury rating about 10 d after treatment, 0 to 100 scale (0 no effect, 100 complete control), read-out: Foxtail, Giant plant response rating. Summed up:
as §2

Test [17] concerns barnyardgrass (Echinochloa crus-galli). In words: Test A postemergence. The conditions noted are these: Echinochloa crus-galli, post-emergence, 240 h, 125 g ai/ha, Postemergence; visual injury after approximately 10 d; 0 to 100 scale where 0 is no effect and 100 is complete control; read-out: Plant response rating, Barnyardgrass. Summed up: as §2
Test [18] deals with Galium (catchweed bedstraw, Galium aparine). In words: Test A postemergence. To be noted: Galium, post-emergence, 240 h, 125 g ai/ha, Postemergence; visual injury after approximately 10 d; 0 to 100 scale where 0 is no effect and 100 is complete control; read-out: Plant response rating, Galium. Summed up: as §2

SMILES strings stand for the structures. Like-named read-outs stand apart in the source and are kept apart here.

Take `Cc1ccc([C@H]2CN(C)C(=O)[C@@H]2C(=O)Nc2cccc(F)c2C)cc1F` [Compound 982]: the pest or weed control at 250 g/ha in test [1] was found to be 75%; in [2] (scale of 0 to 100 where 0 is no effect and 100 is complete control) it was 0%; in [3] it was 100%; with rice (Oryra sativa) it was 20%. Also, the pest or weed control at 125 g/ha in test [4] turned out to be 60%; in [5], 20%; with Kochia (Kochia scoparia) [6], 50%; in test [7], 0%; in test [8], 90%; in [10], 70%. Further, the pest or weed control at 125 g/ha in test [11] turned out to be 90%; in [12], 90%; in the test on Kochia (Kochia scoparia) [14] it was 50%; in test [15], 0%; in test [16] it was 90%. This compound had a Corn plant response rating (crop injury, 0 = no effect, 100 = complete kill) at 125 g/ha in the test with corn (Zea mays) of 60%. Besides, the plant injury at 125 g/ha in test [9] stood at 70%. Further, the pest or weed control at 500 g/ha was determined as 90% in [11]; 90% in test [12]; 80% in test [13]; 90% in the test with Kochia (Kochia scoparia) [14]; 50% in [15]; 100% in test [16].

With `CC(=O)Oc1ccc(NC(=O)[C@H]2C(=O)N(C)C[C@@H]2c2cc(F)cc(F)c2)c(F)c1` [Compound 996], the pest or weed control at 250 g/ha came to 0% in test [1]; 0% in test [2] (0 to 100 scale where 0 is no effect and 100 is complete control); 70% in test [3]; 0% in the test with rice (Oryra sativa). For the same compound, the pest or weed control at 125 g/ha in [4], in test [17], in test [5], in test [18], in test [7] and in [8] was 0% in each case. Further, the pest or weed control at 125 g/ha in test [10] worked out at 0%; in test [11], 0%; in test [12] it was 0%; in [13] (125 g ai/ha, Preemergence, visual injury rating after approximately 10 d, read-out: Ragweed plant response rating (0 to 100 scale, 0 is no effect, 100 is complete control)), 0%; in the test on Kochia (Kochia scoparia) [14], 0%; in test [15], 0%. Also, the pest or weed control at 125 g/ha in test [16] is 0%. Besides, in the test on corn (Zea mays), the Corn plant response rating (crop injury, 0 = no effect, 100 = complete kill) at 125 g/ha was determined as 0%. Further, the plant injury at 125 g/ha in test [9] came to 0%. Further, the pest or weed control at 500 g/ha (in test [11]; in test [12]; in [13]; in the test with Kochia (Kochia scoparia) [14]; in test [15]; in [16]) was 0% each time.
